Patent US20110009616A1, “AGENT FOR PREVENTING ARTERIOSCLEROSIS” (priority 2006, published 2011)

What was measured:
Type in all cases: cell-based
smooth muscle cells = experiment: Oxidized LDL uptake into smooth muscle cells, IN Cell Analyzer (Example 8); settings: FIG. 7
Experimental: As for the compounds in Examples 1 and 2 and Comparative Example 6, the abilities to suppress the oxidized LDL uptake into the smooth muscle cells were evaluated in a similar method to Example 6.
The smooth muscle cells were prepared to 1×10^5 cells/mL and seeded into a 96-well plate. After cultivating for two days, the cells were treated by each inhibitor in a similar method to Example 6. After the treatment of each inhibitor, the cells were washed with PBS three times and fixed with a 10% formalin solution at room temperature in the dark for 10 minutes. The fixed cells were washed with ultrapure water twice and the nuclei were dyed with DAPI. These cells were analyzed with “IN Cell Analyzer” (manufactured by GE Healthcare Bio-Sciences KK), and the uptake number of Dil-labeled oxidized LDL into the smooth muscle cells was divided by the number of nuclei. Furthermore, 4 fields of view per well were measured and the measurements were n=3 per treatment.

SR-AII = biological target: T1, SR-AII (Homo sapiens, UniProt P21757); experiment: DiI-OxLDL uptake into cells expressing SR-AII (Example 7); settings: FIG. 6
T1 construct: expressed in transfected cells; host or cells: COS-1 cells (transient, 48 h), pDEST26
T1 sequence (P21757 1-358 isoform P21757-2): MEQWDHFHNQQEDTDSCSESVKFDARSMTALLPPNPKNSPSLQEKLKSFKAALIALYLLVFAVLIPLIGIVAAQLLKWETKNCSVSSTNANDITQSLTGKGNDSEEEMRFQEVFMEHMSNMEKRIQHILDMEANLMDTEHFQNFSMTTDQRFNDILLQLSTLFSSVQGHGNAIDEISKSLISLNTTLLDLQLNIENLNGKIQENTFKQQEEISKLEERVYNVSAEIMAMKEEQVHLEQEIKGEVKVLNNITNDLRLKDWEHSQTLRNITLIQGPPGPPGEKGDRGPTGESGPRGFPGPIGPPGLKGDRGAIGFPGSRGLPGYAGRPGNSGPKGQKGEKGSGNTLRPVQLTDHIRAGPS
Experimental: As for cDNA cloning of human SR-AII, the full-length sequence (1,077 base pairs) was obtained by PCR using cDNA derived from human normal lien (Invitrogen) as a template. Additionally a CACC sequence was added to 5′-terminal of the upstream primer. The amplified PCR product was inserted to a pENTR/D-TOPO vector (Invitrogen) and transformed into Mach1 cells (Invitrogen). From the obtained transformant, clones supposed to have the plasmid which was correctly inserted with the SR-AII full-length sequence were selected in usual ways such as a colony PCR method, and the plasmid sequence was sequenced. Furthermore, for the plasmid ascertained to have the correct sequence by sequencing, a site-specific recombination reaction to pDEST26 (Invitrogen) as an expression vector for animal cells was carried out according to a manual. The obtained pDEST26 vector having the full-length sequence of […] was transformed into COS-1 cells (Health Science Research Resources Bank), and cultivated for 48 hours to obtain a transient expressed cell line. […] Nystatin (manufactured by Wako) was used as a specific inhibitor of caveola transport.

hLOX-1 = biological target: T2, hLOX-1 (Homo sapiens, UniProt P78380); experiment: Fluorescently labeled oxidized LDL uptake into CHO cells expressing hLOX-1, tetracycline induction (Example 6); settings: FIG. 5; control = 100%; compared with anti-hLOX antibody
T2 construct: expressed in transfected cells; host or cells: CHO-K1 Tet-On cell line (Clontech), pTRE-hLOX1 (B), doxycycline induction
Experimental: As for the same compounds as in Example 5, using Chinese hamster ovary (CHO) cells stably expressing bLOX-1, an ability to suppress fluorescently labeled oxidized LDL uptake into the CHO cells through the bLOX-1 was evaluated. Furthermore, as for the hLOX-1, in the CHO cells using an induction system of tetracycline gene expression, an ability to suppress fluorescently labeled oxidized LDL uptake through the hLOX-1 was evaluated.
As the CHO cells which express the hLOX-1 depending on tetracycline concentrations, the cells transfected with the plasmid described below in a known method were used. The transfected plasmid has a system where a hLOX-1 coding region integrated in pcDNA3.1-hLOX1-V5 (Journal of Molecular and Cellular Cardiology 39 (3) 553-561 (2005)) is mounted in a tetracycline response vector and the expression of hLOX-1 can be controlled depending on the concentration of tetracycline or doxycycline.
An assay using the CHO cells was carried out in the following manner. […] Then, the oxidized LDL labeled with 1,1′-dioctadecyl-3,3,3′,3′-tetramethylindocarbocyanine perchlorate (DiI, manufactured by Invitrogen), a carbocyanine fluorescence pigment, was applied to each well so as to be 5 μg/mL, and, under the environment described above, the uptake of the fluorescently labeled oxidized LDL was performed into the CHO cells for 4 hours. […]

[1] = system: normal bovine aortic endothelial cell (BAEC); experiment: DiI-OxLDL uptake into normal bovine aortic endothelial cells (Example 7); settings: FIG. 6

Compound: C=Cc1c(C)c2cc3nc(c4c5[nH]c(cc6nc(cc1[nH]2)C(C)=C6CC)c(C)c5C(=O)[C@@H]4C(=O)OC)[C@@H](CCC(=O)O)[C@@H]3C [pheophorbide a]
- ability to suppress oxidized LDL uptake in smooth muscle cells (smooth muscle cells): very strong ability to suppress the uptake
- suppression of oxidized LDL uptake in smooth muscle cells, compared with anti-LOX-1 antibody (smooth muscle cells): stronger suppression effect than that of the anti-LOX-1 antibody
- ability to suppress oxidized LDL uptake by SR-A (SR-AII): the ability to suppress the oxidized LDL uptake by SR-A
- amount of oxidized LDL uptake into CHO cells expressing hLOX-1 (hLOX-1): stronger uptake inhibition on hLOX-1 than that of the anti-hLOX antibody
- inhibitory activity on DiI-OxLDL uptake, compared with anti-LOX-1 antibody [1]: stronger than that of the anti-LOX-1 antibody
